Tests used:
[1] = biological target: T1, human B1R receptor (hB1R) (Homo sapiens, UniProt P46663); assay: FLIPR Ca2+ functional study on bradykinin receptor 1, hB1R cells (CHO K1); assay type: cell-based; conditions: CHO-K1, 10 μM test substance; CHO K1 cells with human B1R; agonist Lys-Des-Arg9-bradykinin at EC80; read-out: B1R antagonism, human [10 μM] % inhibition
T1 construct: expressed in transfected cells; host or cells: CHO K1 cells, stably transfected
T1 sequence (P46663 1-353): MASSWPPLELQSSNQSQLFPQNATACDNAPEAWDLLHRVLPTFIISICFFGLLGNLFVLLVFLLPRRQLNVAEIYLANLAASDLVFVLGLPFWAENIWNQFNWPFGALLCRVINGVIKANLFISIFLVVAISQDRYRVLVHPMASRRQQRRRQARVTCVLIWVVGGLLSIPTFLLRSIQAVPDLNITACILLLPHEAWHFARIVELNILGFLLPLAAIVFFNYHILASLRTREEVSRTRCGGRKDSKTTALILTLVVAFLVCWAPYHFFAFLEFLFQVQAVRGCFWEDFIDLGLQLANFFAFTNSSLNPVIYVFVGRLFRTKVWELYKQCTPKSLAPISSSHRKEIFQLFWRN
Method in brief: (§1)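 Stably transfected CHO K1 cells loaded with Fluo-4; FLIPR Ca2+ fluorescence (ex 488/em 540 nm, peak counts). Compounds (10 μM, or concentration series for IC50) preincubated 10–20 min, then EC80 agonist added (human: Lys-Des-Arg9-bradykinin; rat: Des-Arg9-bradykinin); % inhibition versus maximum achievable, n=2–3, N≥2.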

[2] = biological target: T2, B1R receptor of the rat (rB1R) (Rattus norvegicus, UniProt P97583); assay: FLIPR Ca2+ functional study on bradykinin receptor 1, rB1R cells (CHO K1); assay type: cell-based; conditions: 10 μM test substance; CHO K1 cells with rat B1R; agonist Des-Arg9-bradykinin at EC80; read-out: B1R antagonism, rat [10 μM] % inhibition
T2 construct: expressed in transfected cells; host or cells: CHO K1 cells, stably transfected
T2 sequence (P97583 1-337): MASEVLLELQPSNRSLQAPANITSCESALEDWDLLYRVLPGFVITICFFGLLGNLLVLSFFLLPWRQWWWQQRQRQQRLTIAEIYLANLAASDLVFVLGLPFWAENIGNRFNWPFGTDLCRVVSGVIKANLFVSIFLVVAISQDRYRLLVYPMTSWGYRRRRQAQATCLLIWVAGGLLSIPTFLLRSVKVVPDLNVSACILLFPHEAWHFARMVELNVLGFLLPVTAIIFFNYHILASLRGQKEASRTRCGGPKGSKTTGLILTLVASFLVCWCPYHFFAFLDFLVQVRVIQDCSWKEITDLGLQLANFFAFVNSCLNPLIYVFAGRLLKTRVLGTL
Method in brief: as §1

| SMILES | inhibition at 10 µM [1] | inhibition at 10 µM [2] |
| --- | --- | --- |
| O=C(Nc1ccc(Cl)c(Cl)c1)N1CCc2onc(C(=O)N3CCC4(CC3)CCN(c3ccncc3)CC4)c2C1 [Compound G-46, N-(3,4-Dichlorophenyl)-3-(9-(pyridin-4-yl)-3,9-diazaspiro[5.5]undecane-3-carbonyl)-6,7-dihydroisoxazolo[4,5-c]pyridine-5(4H)-carboxamide] | 35% | 57% |
| Cc1ccc(S(=O)(=O)N2CCc3ccc(C(=O)N4CCC5(CC4)CCN(c4ccncc4)CC5)cc3C2)c2ccccc12 [Compound G-47, (2-(4-Methylnaphthalin-1-ylsulfonyl)-1,2,3,4-tetrahydroisoquinolin-7-yl)(9-(pyridin-4-yl)-3,9-diazaspiro[5.5]undecan-3-yl)methanone] | 72% | 80% |
| COc1ccc(S(=O)(=O)N2CCc3ccc(C(=O)N4CCC5(CC4)CCN(c4ccncc4)CC5)cc3C2)c2ccccc12 [Compound G-48, (2-(4-Methoxynaphthalin-1-ylsulfonyl)-1,2,3,4-tetrahydroisoquinolin-7-yl)(9-(pyridin-4-yl)-3,9-diazaspiro[5.5]undecan-3-yl)methanone] | 73% | 95% |
| O=C(c1ccc2c(c1)CN(C(=O)C(c1ccccc1)c1ccccc1)CC2)N1CCC2(CC1)CCN(c1ccncc1)CC2 [Compound G-49, 2,2-Diphenyl-1-(7-(9-(pyridin-4-yl)-3,9-diazaspiro[5.5]undecane-3-carbonyl)-3,4-dihydroisoquinolin-2(1H)-yl)ethanone] | 99% | 106% |
| O=C(c1ccc2c(c1)CN(S(=O)(=O)c1ccc(Cl)c3ccccc13)CC2)N1CCC2(CC1)CCN(c1ccncc1)CC2 [Compound G-50, (2-(4-Chloronaphthalin-1-ylsulfonyl)-1,2,3,4-tetrahydroisoquinolin-7-yl)(9-(pyridin-4-yl)-3,9-diazaspiro[5.5]undecan-3-yl)methanone] | 69% | 91% |
| Cc1cccc(Cl)c1S(=O)(=O)N1CCCc2ccc(CC(=O)N3CCC4(CCN(c5ccncc5)CC4)C3)cc21 [Compound G-51, 2-(1-(2-Chloro-6-methylphenylsulfonyl)-1,2,3,4-tetrahydroquinolin-7-yl)-1-(8-(pyridin-4-yl)-2,8-diazaspiro[4.5]decan-2-yl)ethanone] | 100% | 106% |
| O=C(Cc1ccc2c(c1)N(S(=O)(=O)c1cccc3ccccc13)CCC2)N1CCC2(CCN(c3ccncc3)CC2)C1 [Compound G-52, 2-(1-(Naphthalin-1-ylsulfonyl)-1,2,3,4-tetrahydroquinolin-7-yl)-1-(8-(pyridin-4-yl)-2,8-diazaspiro[4.5]decan-2-yl)ethanone] | 98% | 106% |
| O=C(Cc1ccc2c(c1)N(S(=O)(=O)c1cccc3ccccc13)CCC2)N1CCC2(CCN(c3ccncc3)C2)C1 (centres unmarked) [Compound G-53, 2-(1-(Naphthalin-1-ylsulfonyl)-1,2,3,4-tetrahydroquinolin-7-yl)-1-(7-(pyridin-4-yl)-2,7-diazaspiro[4.4]nonan-2-yl)ethanone] | 95% | 105% |
| O=C(Cc1ccc2c(c1)N(S(=O)(=O)c1cccc3ccccc13)CCC2)N1CCC2(CCC(N3CCC3)CC2)CC1 [Compound G-54, 1-(9-(Azetidin-1-yl)-3-azaspiro[5.5]undecan-3-yl)-2-(1-(naphthalin-1-ylsulfonyl)-1,2,3,4-tetrahydroquinolin-7-yl)ethanone] | 57% | 55% |
| O=C(Nc1ccc(Cl)c(Cl)c1)N1CCc2ccc(C(=O)N3CCC4(CC3)CCN(c3ccncc3)CC4)cc2C1 [Compound G-55, N-(3,4-dichlorophenyl)-7-(9-(pyridin-4-yl)-3,9-diazaspiro[5.5]undecane-3-carbonyl)-3,4-dihydroisoquinoline-2(1H)-carboxamide] | 92% | 94% |
| O=C(c1ccc2c(c1)CN(S(=O)(=O)c1ccc(F)c3ccccc13)CC2)N1CCC2(CC1)CCN(c1ccncc1)CC2 [Compound G-56, (2-(4-Fluoronaphthalin-1-ylsulfonyl)-1,2,3,4-tetrahydroisoquinolin-7-yl)(9-(pyridin-4-yl)-3,9-diazaspiro[5.5]undecan-3-yl)methanone] | 87% | 90% |
| O=C(Cc1ccc2c(c1)N(S(=O)(=O)c1ccccc1C(F)(F)F)CCC2)N1CCC2(CCN(c3ccncc3)CC2)C1 [Compound G-57, 1-(8-(Pyridin-4-yl)-2,8-diazaspiro[4.5]decan-2-yl)-2-(1-(2-(trifluoromethyl)phenylsulfonyl)-1,2,3,4-tetrahydroquinolin-7-yl)ethanone] | 100% | 101% |
| Cc1ccc(C(=O)N2CCc3ccc(C(=O)N4CCC5(CC4)CCN(c4ccncc4)CC5)cc3C2)s1 [Compound G-58, (5-Methylthiophen-2-yl)(7-(9-(pyridin-4-yl)-3,9-diazaspiro[5.5]undecane-3-carbonyl)-3,4-dihydroisoquinolin-2(1H)-yl)methanone] | 100% | 91% |
| O=C(c1ccc2c(c1)CN(C(=O)c1cc3ccccc3s1)CC2)N1CCC2(CC1)CCN(c1ccncc1)CC2 [Compound G-59, Benzo[b]thiophen-2-yl(7-(9-(pyridin-4-yl)-3,9-diazaspiro[5.5]undecane-3-carbonyl)-3,4-dihydroisoquinolin-2(1H)-yl)methanone] | 86% | 95% |
| O=C(c1ccc2c(c1)CN(C(=O)c1cc3c(s1)CCC3)CC2)N1CCC2(CC1)CCN(c1ccncc1)CC2 [Compound G-60, (5,6-Dihydro-4H-cyclopenta[b]thiophen-2-yl)(7-(9-(pyridin-4-yl)-3,9-diazaspiro[5.5]undecane-3-carbonyl)-3,4-dihydroisoquinolin-2(1H)-yl)methanone] | 98% | 91% |
| COc1ccc2c(Cl)c(C(=O)N3CCc4ccc(C(=O)N5CCC6(CC5)CCN(c5ccncc5)CC6)cc4C3)sc2c1 [Compound G-61, (3-Chloro-6-methoxybenzo[b]thiophen-2-yl)(7-(9-(pyridin-4-yl)-3,9-diazaspiro[5.5]undecane-3-carbonyl)-3,4-dihydroisoquinolin-2(1H)-yl)methanone] | 77% | 91% |
| O=C(c1ccc2c(c1)CN(S(=O)(=O)c1cccc3c(Cl)cccc13)CC2)N1CCC2(CC1)CCN(c1ccncc1)CC2 [Compound G-62, (2-(5-Chloronaphthalin-1-ylsulfonyl)-1,2,3,4-tetrahydroisoquinolin-7-yl)(9-(pyridin-4-yl)-3,9-diazaspiro[5.5]undecan-3-yl)methanone] | 44% | 78% |
| CC(C)(C)c1ccc(C(=O)N2CCc3ccc(C(=O)N4CCC5(CC4)CCN(c4ccncc4)CC5)cc3C2)s1 [Compound G-63, (5-tert-Butylthiophen-2-yl)(7-(9-(pyridin-4-yl)-3,9-diazaspiro[5.5]undecane-3-carbonyl)-3,4-dihydroisoquinolin-2(1H)-yl)methanone] | 83% | 80% |
| O=C(Cc1ccc2c(c1)N(C(=O)c1ccccc1Cl)CCC2)N1CCC2(CC1)CCN(c1ccncc1)CC2 [Compound G-64, 2-[1-(2-Chloro-benzoyl)-1,2,3,4-tetrahydro-quinolin-7-yl]-1-(9-pyridin-4-yl-3,9-diazaspiro[5.5]undecan-3-yl)-ethanone] | 59% | 96% |
| Cc1ccc(Cl)c(S(=O)(=O)N2CCCc3ccc(CC(=O)N4CCC5(CC4)CCN(c4ccncc4)CC5)cc32)c1Cl [Compound G-66, 2-[1-[(2,6-Dichloro-3-methyl-phenyl)sulfonyl]-1,2,3,4-tetrahydro-quinolin-7-yl]-1-(9-pyridin-4-yl-3,9-diazaspiro[5.5]undecan-3-yl)-ethanone] | 98% | 100% |
| COc1cc(C)c(S(=O)(=O)N2Cc3ccc(C(=O)N4CCC5(CC4)CCN(c4ccncc4)CC5)cc3C2)c(C)c1 [Compound G-67, [2-[(4-Methoxy-2,6-dimethyl-phenyl)sulfonyl]-2,3-dihydro-1H-isoindol-5-yl]-(9-pyridin-4-yl-3,9-diazaspiro[5.5]undecan-3-yl)-methanone] | 100% | 101% |
| Cc1cccc(Cl)c1S(=O)(=O)N1Cc2ccc(C(=O)N3CCC4(CC3)CCN(c3ccncc3)CC4)cc2C1 [Compound G-68, [2-[(2-Chloro-6-methyl-phenyl)sulfonyl]-2,3-dihydro-1H-isoindol-5-yl]-(9-pyridin-4-yl-3,9-diazaspiro[5.5]undecan-3-yl)-methanone] | 90% | 81% |
